Measurements: patent US20090299049A1, “Bicyclic Compounds and Their Use” (priority 2006, published 2009)

Experiments:
[1] = Optical properties: UV-visible spectra, fluorescence excitation and emission; type: physicochemical; details: for Stokes shift: (1/λex − 1 λem); for λem: fluorescence emission wavelength; for λex: fluorescence excitation wavelength; for Absorption maxima shift relative to compound 7a (parent): compared with the guanosine series
Description: The optical properties of several novel chromophores were investigated. UV-visible spectra reveal an intense absorption in the UV region for all the compounds evaluated.

[2] = UV absorbance and fluorescence of ribonucleoside analogues in DMSO (molar extinction coefficient, quantum yield); type: physicochemical; details: for Quantum yield: relative to quinine sulphate and anthracene standards
Description: UV absorbance and fluorescence excitation and emission data were used to determine the molar extinction coefficient and fluorescence quantum yield of a several adenosine and guanosine ribonucleoside analogues in DMSO (see the Table below). The data acquired support the concept that the fluorescence properties of these analogues can be tuned by altering the electron-donating or electron-withdrawing R-group on the terminal phenylalkyne. Fourteen electron-donating or electron-withdrawing R-groups were coupled to purine bases at the 8-position. […] This makes the analogues extremely useful for the quantification of analogue-containing nucleic acid products in a DNA or RNA background. […] The position (ortho, meta or para) of the R-group on the phenyl ring can also be used to tune the fluorescent properties of the analogues. The ring position of the R-group has a smaller effect on the fluorescent properties of the analogues. Greater changes in the excitation/emission wavelength, molar extinction coefficient and quantum yield can be induced by changing the type of R-group (electron-donating vs. electron-withdrawing) as compared to the position of a R-group on the phenyl ring (ortho, meta or para). The quantum yields of the unphosphorylated analogues were measured relative to quinine sulphate and anthracene standards. […] This provides additional support for the idea that the purine bases can both push and pull electrons in π-conjugated systems.

| Compound | melting point | Stokes shift [1] [cm⁻¹] | λem [1] [nm] | λex [1] [nm] | Molar absorption coefficient [2] [M⁻¹ cm⁻¹] | Wavelength at fluorescence emission maximum [2] [nm] | Wavelength at maximum in UV absorption [2] [nm] | Quantum yield [2] [%] | Absorption maxima shift relative to compound 7a (parent) [1] | UV-visible spectrum shift relative to compound 5a (parent) [1] | HOMO-LUMO gap relative to compound 5a ([1]; inferred from UV-visible spectrum) |
| --- | --- | --- | --- | --- | --- | --- | --- | --- | --- | --- | --- |
| Cc1ccc(C#Cc2nc3c(N)ncnc3n2[C@@H]2O[C@H](CO)[C@@H](O)[C@H]2O)cc1 [Compound 6b, 8-(4′-Methylphenylethynyl)adenosine] | 196 to 198 °C (dec.) | 3126 | 393 | 350 | 18772 | 393 | 323 | 54 | – | – | – |
| Nc1nc2c(nc(C#Cc3ccccc3C(F)(F)F)n2[C@@H]2O[C@H](CO)[C@@H](O)[C@H]2O)c(=O)[nH]1 [Guanosine —CF3 ortho] | – | – | – | – | – | 421 | 347 | 1.1 | – | – | – |
| Nc1nc2c(nc(C#Cc3ccc(C(F)(F)F)cc3)n2[C@@H]2O[C@H](CO)[C@@H](O)[C@H]2O)c(=O)[nH]1 [Compound 5g, 8-(4′-Trifluoromethylphenylethynyl)guanosine] | > 240 °C | 4539 | 468 | 386 | – | 458 | 348 | 0.74 | – | – | – |
| Nc1ncnc2c1nc(C#Cc1cccc(C(F)(F)F)c1)n2[C@@H]1O[C@H](CO)[C@@H](O)[C@H]1O [Adenosine —CF3 meta] | – | – | – | – | 19547 | 421 | 326 | 21 | – | – | – |
| CC(=O)c1ccc(C#Cc2nc3c(N)ncnc3n2[C@@H]2O[C@H](CO)[C@@H](O)[C@H]2O)cc1 [Compound 6f, 8-(4′-Acetophenonephenylethynyl)adenosine] | – | 6454 | 493 | 374 | 19639 | 493 | 343 | 4.9 | – | – | – |
| COc1ccc(C#Cc2nc3c(N)ncnc3n2[C@@H]2O[C@H](CO)[C@@H](O)[C@H]2O)cc1 [Compound 6c, 8-(4-methoxyphenylethynyl)-adenosine] | 198 to 202 °C (dec.) | 1933 | 380 | 354 | 18176 | 380 | 326 | 24 | more significant differences | – | – |
| CC(=O)c1ccc(C#Cc2nc3c(=O)[nH]c(N)nc3n2[C@@H]2O[C@H](CO)[C@@H](O)[C@H]2O)cc1 [Compound 5f, 8-(4′-Acetophenonephenylethynyl)guanosine] | – | 6392 | 532 | 397 | 19589 | 509 | 364 | 0.44 | – | – | – |
| Nc1ncnc2c1nc(C#Cc1ccc(F)cc1)n2[C@@H]1O[C@H](CO)[C@@H](O)[C@H]1O [Adenosine —F para] | – | – | – | – | 5558 | 396 | 320 | 40 | – | – | – |
| COc1cccc(C#Cc2nc3c(N)ncnc3n2[C@@H]2O[C@H](CO)[C@@H](O)[C@H]2O)c1 [Adenosine —OCH3 meta] | – | – | – | – | 19589 | 400 | 324 | 52 | – | – | – |
| COc1ccccc1C#Cc1nc2c(N)ncnc2n1[C@@H]1O[C@H](CO)[C@@H](O)[C@H]1O [Adenosine —OCH3 ortho] | – | – | – | – | – | 429 | 333 | 21 | – | – | – |
| Nc1nc2c(nc(C#Cc3cccc4ccccc34)n2[C@@H]2O[C@H](CO)[C@@H](O)[C@H]2O)c(=O)[nH]1 [Compound 5h, 8-(Napthylethynyl)guanosine] | – | 4604 | 465 | 383 | 15141 | 467 | 357 | 5.4 | – | – | – |
| 8-(1′-Ethynylferrocene)adenosine [Compound 6i] | – | 3986 | 434 | 370 | – | – | – | – | – | – | – |
| CCN(CC)c1ccc(C#Cc2nc3c(=O)[nH]c(N)nc3n2[C@@H]2O[C@H](CO)[C@@H](O)[C@H]2O)cc1 [Compound 5e, 8-(4-N,N-diethylaminephenylethynyl)guanosine] | – | 5205 | 502 | 398 | – | 409 | 356 | 2.1 | – | red-shifted | higher HOMO-LUMO gap |
| Nc1nc2c(nc(C#Cc3ccc(Cl)cc3)n2[C@@H]2O[C@H](CO)[C@@H](O)[C@H]2O)c(=O)[nH]1 [Guanosine —Cl para] | – | – | – | – | 23317 | 431 | 338 | 1.9 | – | – | – |
| 8-(1′-Ethynylferrocene)guanosine [Compound 5i] | – | 3537 | 439 | 380 | – | – | – | – | – | – | – |
| Nc1ncnc2c1nc(C#Cc1ccc(Cl)cc1)n2[C@@H]1O[C@H](CO)[C@@H](O)[C@H]1O [Adenosine —Cl para] | – | – | – | – | 23927 | 410 | 326 | 46 | – | – | – |
| Nc1nc2c(nc(C#Cc3ccc(F)cc3)n2[C@@H]2O[C@H](CO)[C@@H](O)[C@H]2O)c(=O)[nH]1 [Guanosine —F para] | – | – | – | – | 11304 | 416 | 333 | 2.4 | – | – | – |
| COc1cccc(C#Cc2nc3c(=O)[nH]c(N)nc3n2[C@@H]2O[C@H](CO)[C@@H](O)[C@H]2O)c1 [Guanosine —OCH3 meta] | – | – | – | – | 20261 | 420 | 334 | 3.6 | – | – | – |
| Nc1ncnc2c1nc(C#Cc1cccc3ccccc13)n2[C@@H]1O[C@H](CO)[C@@H](O)[C@H]1O [Compound 6h, 8-(Napthylethynyl)adenosine] | – | 3394 | 431 | 376 | 22970 | 430 | 349 | 49 | – | – | – |
| CCN(CC)c1ccc(C#Cc2nc3c(N)ncnc3n2[C@@H]2O[C@H](CO)[C@@H](O)[C@H]2O)cc1 [Compound 6e, 8-(4-N,N-Diethylaminephenylethynyl)adenosine] | – | 4747 | 506 | 408 | – | 441 | 365 | 8.4 | more significant differences | – | – |
